This note sets out measurements from ChEMBL document CHEMBL5096151, “Phytocannabinoid Pharmacology: Medicinal Properties of Cannabis sativa Constituents Aside from the "Big Two"” (J Nat Prod, 2021).

The target in experiment [1] is T1, Transient receptor potential cation channel subfamily V member 4 (Homo sapiens, UniProt Q9HBA0). Nature of the experiment: Agonist activity at ionomycin-stimulated TRPV4 (unknown origin) activation.
Experiment [2] deals with T2, Transient receptor potential cation channel subfamily V member 3 (Homo sapiens, UniProt Q8NET8).
T2 sequence (Q8NET8 whole entry): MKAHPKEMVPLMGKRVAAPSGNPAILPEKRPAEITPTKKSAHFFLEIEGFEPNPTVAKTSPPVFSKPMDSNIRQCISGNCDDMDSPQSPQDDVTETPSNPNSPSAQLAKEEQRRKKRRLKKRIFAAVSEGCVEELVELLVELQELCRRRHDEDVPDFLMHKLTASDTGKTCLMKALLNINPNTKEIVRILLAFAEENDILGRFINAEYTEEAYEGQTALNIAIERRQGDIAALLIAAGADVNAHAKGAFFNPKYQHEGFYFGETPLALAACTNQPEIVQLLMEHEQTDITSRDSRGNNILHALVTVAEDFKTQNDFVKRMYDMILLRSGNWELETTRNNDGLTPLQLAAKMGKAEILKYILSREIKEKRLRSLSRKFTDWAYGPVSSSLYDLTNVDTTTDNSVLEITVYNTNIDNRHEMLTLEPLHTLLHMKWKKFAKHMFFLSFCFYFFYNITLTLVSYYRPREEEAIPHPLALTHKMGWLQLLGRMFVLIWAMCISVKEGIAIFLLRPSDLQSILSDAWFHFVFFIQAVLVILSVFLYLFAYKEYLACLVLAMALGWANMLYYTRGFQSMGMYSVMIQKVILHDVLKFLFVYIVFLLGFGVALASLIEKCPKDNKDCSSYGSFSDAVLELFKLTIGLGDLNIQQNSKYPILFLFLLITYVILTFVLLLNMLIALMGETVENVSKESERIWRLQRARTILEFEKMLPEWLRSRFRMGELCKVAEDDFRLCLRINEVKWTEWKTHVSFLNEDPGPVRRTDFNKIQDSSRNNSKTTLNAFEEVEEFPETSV
The experiment in a line: Agonist activity at ionomycin-stimulated TRPV3 (unknown origin) channel desensitization in presence of carvacrol.

For experiment [3], the target named is T2, Transient receptor potential cation channel subfamily V member 3. Nature of the experiment: Agonist activity at ionomycin-stimulated TRPV3 (unknown origin) activation.
Experiment [4] deals with T3, Transient receptor potential cation channel subfamily V member 2 (Homo sapiens, UniProt Q9Y5S1).
T3 sequence (Q9Y5S1 whole entry): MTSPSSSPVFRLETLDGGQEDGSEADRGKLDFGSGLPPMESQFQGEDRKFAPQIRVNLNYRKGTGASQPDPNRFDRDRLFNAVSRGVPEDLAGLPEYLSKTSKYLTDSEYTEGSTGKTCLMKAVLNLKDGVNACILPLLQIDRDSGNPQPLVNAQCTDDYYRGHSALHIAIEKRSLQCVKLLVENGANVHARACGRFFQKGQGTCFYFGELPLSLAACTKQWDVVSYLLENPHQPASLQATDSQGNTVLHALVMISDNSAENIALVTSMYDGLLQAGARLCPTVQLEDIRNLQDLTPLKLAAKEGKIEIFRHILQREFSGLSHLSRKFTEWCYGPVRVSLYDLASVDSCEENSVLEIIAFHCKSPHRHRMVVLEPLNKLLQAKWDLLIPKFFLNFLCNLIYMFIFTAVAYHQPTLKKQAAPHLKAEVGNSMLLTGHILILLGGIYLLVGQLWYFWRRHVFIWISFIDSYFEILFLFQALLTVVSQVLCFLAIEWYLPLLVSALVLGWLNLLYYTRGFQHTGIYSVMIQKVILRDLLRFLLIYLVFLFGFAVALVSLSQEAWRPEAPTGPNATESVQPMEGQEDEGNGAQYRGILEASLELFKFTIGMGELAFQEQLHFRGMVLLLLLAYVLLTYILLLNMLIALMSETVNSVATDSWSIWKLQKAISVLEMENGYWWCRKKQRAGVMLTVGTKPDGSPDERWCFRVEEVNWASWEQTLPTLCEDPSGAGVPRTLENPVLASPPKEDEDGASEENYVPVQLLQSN
The experiment in a line: Agonist activity at ionomycin-stimulated TRPV2 (unknown origin) activation.

Experiment [5] has as its target T4, Transient receptor potential cation channel subfamily V member 2 (Homo sapiens) (UniProt Q9Y5S1).
T4 sequence (whole entry): T3 sequence (Q9Y5S1 whole entry)
The experiment in a line: Agonist activity at ionomycin-stimulated TRPV2 (unknown origin) activation assessed as efficacy relative to control.

The target of experiment [6] is T5, Transient receptor potential cation channel subfamily A member 1 (Homo sapiens, UniProt O75762). The experiment in a line: Agonist activity at TRPA1 (unknown origin) activation.
In experiment [7] the target is T3, Transient receptor potential cation channel subfamily V member 2. Nature of the experiment: Agonist activity at ionomycin-stimulated TRPV2 (unknown origin) channel desensitization in presence of lysophosphatidylcholine.
Experiment [8] addresses T1, Transient receptor potential cation channel subfamily V member 4. Nature of the experiment: Agonist activity at ionomycin-stimulated TRPV4 (unknown origin) channel desensitization in presence of 4alphaPDD.
Experiment [9] has as its target T6, Transient receptor potential cation channel subfamily V member 1 (Homo sapiens, UniProt Q8NER1). The experiment in a line: Agonist activity at ionomycin-stimulated TRPV1 (unknown origin) channel desensitization in presence of capsaicin.
Experiment [10] has as its target T5, Transient receptor potential cation channel subfamily A member 1. The experiment in a line: Agonist activity at TRPA1 (unknown origin) channel desensitization in presence of icilin.
The target in experiment [11] is T1, Transient receptor potential cation channel subfamily V member 4. Nature of the experiment: Agonist activity at ionomycin-stimulated TRPV4 (unknown origin) activation assessed as efficacy relative to control.
Experiment [12] concerns the target T5, Transient receptor potential cation channel subfamily A member 1. The experiment in a line: Agonist activity at TRPA1 (unknown origin) channel desensitization in presence of isothiocyanate.
The target is the same in experiment [13]. The experiment in a line: Agonist activity at TRPA1 (unknown origin) activation assessed as efficacy relative to control. Particulars: filed as agonist.
The target in experiment [14] is T7, Transient receptor potential cation channel subfamily V member 3 (Homo sapiens) (UniProt Q8NET8).
T7 sequence (whole entry): T2 sequence (Q8NET8 whole entry)
The experiment in a line: Agonist activity at ionomycin-stimulated TRPV3 (unknown origin) activation assessed as efficacy relative to control.

Experiment [15] deals with T6, Transient receptor potential cation channel subfamily V member 1. The experiment in a line: Agonist activity at ionomycin-stimulated TRPV1 (unknown origin) activation assessed as efficacy relative to control.
For experiment [16] the target is unchanged. Nature of the experiment: Agonist activity at ionomycin-stimulated TRPV1 (unknown origin) activation.
The target in experiment [17] is Transient receptor potential cation channel subfamily M member 8 (Homo sapiens, UniProt Q7Z2W7). The experiment in a line: Antagonist activity at TRPM8 (unknown origin) ion channel.
The target of experiment [18] is 5-hydroxytryptamine receptor 1A (Rattus norvegicus, UniProt P19327). The experiment in a line: Displacement of [35S]GTPgammaS from 5HT1A in Sprague-Dawley rat brainstem incubated for 60 mins by radioligand binding assay. Format: tissue-based.
Experiment [19] concerns the target T8, Cannabinoid receptor 2 (Homo sapiens, UniProt P34972). Nature of the experiment: Agonist activity at CB2 receptor (unknown origin) expressed in CHO cell membranes assessed as increase in [35S]GTPgammaS binding incubated for 60 mins by liquid scintillation spectrometry analysis. Format: functional, Membrane.
Experiment [20] addresses 5-hydroxytryptamine receptor 1A (Homo sapiens) (UniProt P08908). The experiment in a line: Displacement of [35S]GTPgammaS from 5HT1A in […] by measuring efficacy incubated for 60 mins by radioligand binding assay relative to control. Format: cell-based.
Experiment [21] concerns the target 5-hydroxytryptamine receptor 1A (Rattus norvegicus) (UniProt P19327). Nature of the experiment: Displacement of [35S]GTPgammaS from 5HT1A in Sprague-Dawley rat brainstem by measuring efficacy incubated for 60 mins by radioligand binding assay relative to control. Format: tissue-based.
Experiment [22] concerns the target T9, G-protein coupled receptor 55 (Homo sapiens, UniProt Q9Y2T6). The experiment in a line: Antagonist activity at GPR55 (unknown origin) expressed in HEK293 cells assessed as LPI-stimulated ERK1/2 phosphorylation by measuring efficacy relative to control. Format: functional, cell-based. Particulars: filed as antagonist.
Experiment [23] addresses Cannabinoid receptor 1 (Homo sapiens, UniProt P21554). Nature of the experiment: Binding affinity to CB1 (unknown origin) receptor assessed as inhibition constant.
The target of experiment [24] is Cannabinoid receptor 1 (Mus musculus, UniProt P47746). The experiment in a line: Agonist activity at CB1 receptor in albino MF1 mouse vas deferens assessed as inhibition of electrically evoked vas deferens contraction by incubated for 13 mins followed by electrical stimulation for 2 mins. The experiment is classed as functional.
Experiment [25] concerns the target 5-hydroxytryptamine receptor 1A (Homo sapiens, UniProt P08908). Nature of the experiment: Displacement of [35S]GTPgammaS from 5HT1A in […] incubated for 60 mins by radioligand binding assay. The experiment is classed as cell-based.
Experiment [26] has as its target T8, Cannabinoid receptor 2. The experiment in a line: Inhibition of human CB2 receptor. Format: functional. Particulars: concentration not given here.
Experiment [27] deals with T5, Transient receptor potential cation channel subfamily A member 1. The experiment in a line: Agonist activity at TRPA1 (unknown origin) ion channel.
The target in experiment [28] is Transient receptor potential cation channel subfamily V member 6 (Homo sapiens, UniProt Q9H1D0). Nature of the experiment: Inhibition of TRPV6 channel (unknown origin) by Patch-clamp assay.
The target in experiment [29] is T6, Transient receptor potential cation channel subfamily V member 1. The experiment in a line: Agonist activity at TRPV1 (unknown origin) ion channel.
For experiment [30], the target named is Transient receptor potential cation channel subfamily V member 5 (Homo sapiens, UniProt Q9NQA5). Nature of the experiment: Inhibition of TRPV5 channel (unknown origin) by Patch-clamp assay.
Experiment [31] deals with T9, G-protein coupled receptor 55. The experiment in a line: Antagonist activity at GPR55 (unknown origin) expressed in HEK293 cells assessed as LPI-stimulated ERK1/2 phosphorylation. Format: functional, cell-based.
The target in experiment [32] is T8, Cannabinoid receptor 2. The experiment in a line: Agonist activity at human CB2 receptor transfected in CHO cells assessed as inhibition of cyclic AMP production. The experiment is classed as functional, cell-based.
The target of experiment [33] is T8, Cannabinoid receptor 2. The experiment in a line: Agonist activity at CB2 receptor (unknown origin) expressed in CHO cell membranes assessed as increase in [35S]GTPgammaS binding by measuring efficacy incubated for 60 mins by liquid scintillation spectrometry analysis relative to control. The experiment is classed as functional. Particulars: Membrane, filed as agonist.

T6 sequence (Q8NER1 whole entry): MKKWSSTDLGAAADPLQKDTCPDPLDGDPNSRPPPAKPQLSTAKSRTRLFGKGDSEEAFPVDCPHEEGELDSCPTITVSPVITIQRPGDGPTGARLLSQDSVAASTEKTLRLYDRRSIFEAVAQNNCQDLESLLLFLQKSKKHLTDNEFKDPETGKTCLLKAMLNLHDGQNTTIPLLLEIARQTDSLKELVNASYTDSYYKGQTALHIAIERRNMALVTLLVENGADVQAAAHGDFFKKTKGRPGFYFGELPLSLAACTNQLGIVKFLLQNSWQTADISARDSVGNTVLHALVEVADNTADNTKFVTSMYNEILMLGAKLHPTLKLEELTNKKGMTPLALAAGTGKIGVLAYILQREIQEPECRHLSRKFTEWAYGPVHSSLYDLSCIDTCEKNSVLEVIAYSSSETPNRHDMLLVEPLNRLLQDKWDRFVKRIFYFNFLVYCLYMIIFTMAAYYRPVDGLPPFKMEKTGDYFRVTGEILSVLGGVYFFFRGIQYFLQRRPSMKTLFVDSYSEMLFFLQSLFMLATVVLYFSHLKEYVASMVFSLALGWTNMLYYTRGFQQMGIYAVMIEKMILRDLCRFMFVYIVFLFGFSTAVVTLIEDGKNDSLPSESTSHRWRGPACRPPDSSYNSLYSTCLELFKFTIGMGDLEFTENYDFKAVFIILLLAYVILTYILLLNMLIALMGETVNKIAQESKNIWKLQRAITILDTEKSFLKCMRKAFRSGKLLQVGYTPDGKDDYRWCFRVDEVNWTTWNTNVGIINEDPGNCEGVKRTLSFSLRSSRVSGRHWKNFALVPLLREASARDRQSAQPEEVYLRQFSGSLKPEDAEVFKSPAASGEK
T5 sequence (O75762 whole entry): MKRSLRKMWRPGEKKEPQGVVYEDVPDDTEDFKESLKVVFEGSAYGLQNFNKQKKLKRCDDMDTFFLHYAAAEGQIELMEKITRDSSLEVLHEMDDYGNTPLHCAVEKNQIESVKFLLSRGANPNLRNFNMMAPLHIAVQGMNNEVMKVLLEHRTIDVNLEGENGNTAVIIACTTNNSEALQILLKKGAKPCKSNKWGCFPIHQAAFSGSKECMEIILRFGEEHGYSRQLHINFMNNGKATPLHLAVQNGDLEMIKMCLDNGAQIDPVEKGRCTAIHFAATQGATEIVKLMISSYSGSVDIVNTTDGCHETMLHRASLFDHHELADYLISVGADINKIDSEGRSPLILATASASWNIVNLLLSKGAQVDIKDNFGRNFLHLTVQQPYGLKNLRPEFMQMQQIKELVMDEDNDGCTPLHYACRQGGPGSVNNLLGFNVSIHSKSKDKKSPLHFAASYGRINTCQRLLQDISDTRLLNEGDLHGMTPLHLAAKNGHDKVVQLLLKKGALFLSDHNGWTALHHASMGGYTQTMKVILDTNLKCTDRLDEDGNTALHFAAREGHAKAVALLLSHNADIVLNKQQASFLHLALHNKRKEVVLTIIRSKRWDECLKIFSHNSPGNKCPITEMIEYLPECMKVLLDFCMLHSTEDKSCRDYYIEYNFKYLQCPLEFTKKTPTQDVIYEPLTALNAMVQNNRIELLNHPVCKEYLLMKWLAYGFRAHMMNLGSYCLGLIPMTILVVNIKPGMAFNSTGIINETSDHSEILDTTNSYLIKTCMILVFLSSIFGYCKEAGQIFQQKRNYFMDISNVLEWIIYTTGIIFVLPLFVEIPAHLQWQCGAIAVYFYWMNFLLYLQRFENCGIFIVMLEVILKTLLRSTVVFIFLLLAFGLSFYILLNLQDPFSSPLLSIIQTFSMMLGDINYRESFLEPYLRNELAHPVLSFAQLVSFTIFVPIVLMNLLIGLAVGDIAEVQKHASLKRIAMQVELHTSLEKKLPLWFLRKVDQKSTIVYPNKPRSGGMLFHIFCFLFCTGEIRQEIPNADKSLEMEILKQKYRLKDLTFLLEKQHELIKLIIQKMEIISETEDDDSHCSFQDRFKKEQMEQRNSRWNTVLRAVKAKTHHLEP
T8 sequence (P34972 whole entry): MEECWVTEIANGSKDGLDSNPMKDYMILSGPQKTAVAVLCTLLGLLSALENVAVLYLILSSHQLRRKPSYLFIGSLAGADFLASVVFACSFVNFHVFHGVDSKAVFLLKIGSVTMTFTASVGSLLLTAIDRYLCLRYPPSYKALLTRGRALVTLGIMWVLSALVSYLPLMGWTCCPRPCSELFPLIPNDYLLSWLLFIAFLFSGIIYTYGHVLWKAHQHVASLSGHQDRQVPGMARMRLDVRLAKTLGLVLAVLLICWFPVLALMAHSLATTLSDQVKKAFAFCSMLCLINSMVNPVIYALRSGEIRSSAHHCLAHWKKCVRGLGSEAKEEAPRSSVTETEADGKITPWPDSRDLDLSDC
T1 sequence (Q9HBA0 whole entry): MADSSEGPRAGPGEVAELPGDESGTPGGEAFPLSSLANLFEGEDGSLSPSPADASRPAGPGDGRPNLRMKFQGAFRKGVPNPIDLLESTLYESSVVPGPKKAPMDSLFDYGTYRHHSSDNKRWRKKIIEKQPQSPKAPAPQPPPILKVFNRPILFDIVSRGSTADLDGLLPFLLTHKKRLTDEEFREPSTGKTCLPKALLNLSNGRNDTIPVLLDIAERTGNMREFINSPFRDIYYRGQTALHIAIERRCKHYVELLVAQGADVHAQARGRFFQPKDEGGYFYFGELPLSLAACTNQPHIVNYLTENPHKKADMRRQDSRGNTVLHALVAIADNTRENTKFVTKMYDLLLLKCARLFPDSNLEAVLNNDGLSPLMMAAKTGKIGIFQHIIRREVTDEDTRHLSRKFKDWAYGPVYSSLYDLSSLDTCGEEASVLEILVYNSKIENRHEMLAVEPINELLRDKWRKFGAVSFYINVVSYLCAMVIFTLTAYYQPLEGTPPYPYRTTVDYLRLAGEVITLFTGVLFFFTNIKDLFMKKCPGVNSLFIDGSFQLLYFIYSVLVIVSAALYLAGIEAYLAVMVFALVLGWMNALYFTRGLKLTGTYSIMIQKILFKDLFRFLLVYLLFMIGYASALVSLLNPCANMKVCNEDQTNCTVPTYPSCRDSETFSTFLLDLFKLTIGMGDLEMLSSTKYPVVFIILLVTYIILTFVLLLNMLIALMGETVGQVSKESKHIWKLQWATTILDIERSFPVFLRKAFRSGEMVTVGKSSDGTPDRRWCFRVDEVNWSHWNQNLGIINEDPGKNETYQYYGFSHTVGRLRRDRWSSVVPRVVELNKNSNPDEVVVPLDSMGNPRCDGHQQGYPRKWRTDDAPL
Chain of Transient receptor potential cation channel subfamily M member 8 (Q7Z2W7 whole entry): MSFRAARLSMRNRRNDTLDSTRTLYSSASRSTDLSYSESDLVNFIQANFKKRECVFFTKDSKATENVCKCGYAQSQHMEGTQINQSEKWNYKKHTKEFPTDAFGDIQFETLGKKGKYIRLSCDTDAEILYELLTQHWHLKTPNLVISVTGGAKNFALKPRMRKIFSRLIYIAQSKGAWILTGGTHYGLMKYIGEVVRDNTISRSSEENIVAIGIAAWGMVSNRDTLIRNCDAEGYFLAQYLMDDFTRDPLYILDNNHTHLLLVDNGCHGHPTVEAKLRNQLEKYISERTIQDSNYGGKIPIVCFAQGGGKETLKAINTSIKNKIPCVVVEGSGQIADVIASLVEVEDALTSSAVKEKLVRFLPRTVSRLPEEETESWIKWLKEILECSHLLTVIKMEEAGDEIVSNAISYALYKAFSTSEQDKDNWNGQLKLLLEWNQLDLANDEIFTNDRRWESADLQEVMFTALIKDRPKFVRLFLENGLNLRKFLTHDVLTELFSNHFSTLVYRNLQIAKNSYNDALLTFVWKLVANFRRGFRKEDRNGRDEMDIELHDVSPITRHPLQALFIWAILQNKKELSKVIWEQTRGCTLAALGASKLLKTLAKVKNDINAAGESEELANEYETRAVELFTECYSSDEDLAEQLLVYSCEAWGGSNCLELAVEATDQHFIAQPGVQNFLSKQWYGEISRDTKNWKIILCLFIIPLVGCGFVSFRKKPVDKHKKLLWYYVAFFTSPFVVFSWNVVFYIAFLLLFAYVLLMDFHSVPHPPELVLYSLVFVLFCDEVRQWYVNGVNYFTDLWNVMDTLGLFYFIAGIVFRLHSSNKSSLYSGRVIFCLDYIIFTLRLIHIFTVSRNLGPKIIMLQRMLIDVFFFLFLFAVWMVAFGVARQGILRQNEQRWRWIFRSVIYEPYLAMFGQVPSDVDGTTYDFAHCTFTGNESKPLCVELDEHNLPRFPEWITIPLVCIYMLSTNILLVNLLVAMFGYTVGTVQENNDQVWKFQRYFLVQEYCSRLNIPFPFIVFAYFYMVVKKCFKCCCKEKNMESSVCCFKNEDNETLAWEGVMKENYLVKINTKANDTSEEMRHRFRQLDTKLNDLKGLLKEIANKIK
T9 sequence (Q9Y2T6 whole entry): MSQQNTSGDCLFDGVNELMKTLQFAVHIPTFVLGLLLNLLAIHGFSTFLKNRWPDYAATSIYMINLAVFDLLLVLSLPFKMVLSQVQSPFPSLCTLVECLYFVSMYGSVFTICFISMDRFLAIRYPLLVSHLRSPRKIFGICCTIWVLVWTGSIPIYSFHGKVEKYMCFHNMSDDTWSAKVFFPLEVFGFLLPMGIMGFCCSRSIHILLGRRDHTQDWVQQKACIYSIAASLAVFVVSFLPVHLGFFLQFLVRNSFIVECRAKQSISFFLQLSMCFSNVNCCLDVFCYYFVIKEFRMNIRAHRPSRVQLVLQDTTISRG
Chain of 5-hydroxytryptamine receptor 1A (Rattus norvegicus, UniProt P19327) (P19327 whole entry): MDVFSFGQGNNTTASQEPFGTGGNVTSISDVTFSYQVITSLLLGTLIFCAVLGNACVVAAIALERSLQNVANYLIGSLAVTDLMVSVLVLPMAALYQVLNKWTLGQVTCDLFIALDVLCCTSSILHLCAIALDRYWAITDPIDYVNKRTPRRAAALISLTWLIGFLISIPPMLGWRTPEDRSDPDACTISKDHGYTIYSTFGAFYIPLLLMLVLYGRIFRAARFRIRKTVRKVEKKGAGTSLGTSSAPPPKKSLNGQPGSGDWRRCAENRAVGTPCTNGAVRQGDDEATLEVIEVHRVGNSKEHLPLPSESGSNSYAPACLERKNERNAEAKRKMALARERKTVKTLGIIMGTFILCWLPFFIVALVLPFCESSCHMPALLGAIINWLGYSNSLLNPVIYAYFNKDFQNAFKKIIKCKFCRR

On to `CCCc1cc(O)c2c(c1)OC(C)(C)c1ccc(C)cc1-2`, for which the EC50 is 7300 nM in experiment [1], 3500 nM in experiment [3], 3100 nM in experiment [4] and 200 nM in experiment [6]. Further, the IC50 was found to be 1600 nM in experiment [2]; 2200 nM in [7]; 4000 nM in experiment [8]; 11900 nM in experiment [9]; 500 nM in experiment [10]; 170 nM in experiment [12]. Besides, the Efficacy worked out at 79% in experiment [5] (filed as agonist); 37% in experiment [11]; 123% in experiment [13]; 78% in [14] (filed as agonist); 50% in experiment [15] (filed as agonist).
With `CCCCCc1cc(O)c2c(c1)OC(C)(CCC=C(C)C)C=C2` (stereo not drawn) [CANNABICHROMENE], the EC50 in experiment [1] is 600 nM; in experiment [3] it was 1900 nM; in [6] it was 90 nM; in experiment [16] it was 24200 nM. Moreover, the IC50 in [2] is 201000 nM; in experiment [7], 6500 nM; in [8], 9900 nM; in experiment [9], above 50000 nM; in [12], 370 nM; in [17] it was 40700 nM. Further, the Efficacy was below 10% in experiment [5]; 23% in experiment [11]; 119% in experiment [13]; 20% in [14]; below 10% in experiment [15].
Take `CCCc1cc(O)c2c(c1)OC(C)(C)[C@@H]1CCC(C)=C[C@@H]21` [TETRAHYDROCANNABIVARIN]: the EC50 was 5.4 nM in experiment [18]; 98 nM on Cannabinoid receptor 2 [19]; 6400 nM in experiment [1]; 3800 nM in experiment [3]; 4100 nM in experiment [4]; 1500 nM in experiment [6]. For the same molecule, the concentration giving a half-maximal response (EC50) came out at 1500 nM in experiment [16]; 12700 nM at Cannabinoid receptor 1 [24]; 28 nM in [25]; 70 nM in experiment [27]; 200 nM in experiment [29]; 880 nM in experiment [31]. The EC50 at Cannabinoid receptor 2 [32] is 38 nM. Further, the Efficacy stood at 134% in [20]; 35% in experiment [21]; 61% in experiment [22]; 74% in [5] (filed as agonist); 60% in experiment [11] (filed as agonist); 243% in experiment [13]. The Efficacy in [14] (filed as agonist) amounted to 72%; in [15] (filed as agonist), 68%; on Cannabinoid receptor 2 [33] it was 40%. The IC50 is 3000 nM in experiment [2]; 800 nM in experiment [7]; 3200 nM in experiment [8]; 1300 nM in experiment [9]; 870 nM in [10]; 9400 nM in experiment [28]. For the same molecule, the results for the IC50 in experiment [12], in experiment [30] and in experiment [17] were 3070 nM, 4800 nM and 20 nM, respectively. Further, the Ki at Cannabinoid receptor 1 [23] came to 1000 nM. This molecule showed an inhibition against Cannabinoid receptor 2 [26] of 0.143%.
